Results taken from publication PMC4245091, “Novel Virtual Screening Approach for the Discovery of Human Tyrosinase Inhibitors” (PLoS ONE, 2014).

Biological target: T1, Mushroom tyrosinase
T1 construct: gene PPO1; commercial native mushroom preparation (Sigma-Aldrich)
Test: L-tyrosine to dopachrome, absorbance at […] nm
Type: biochemical
Details: L-tyrosine 0.2 mg/ml; 2 µg/ml enzyme; 100 mM phosphate pH 6.8; 5% ethanol; 25 °C; 30 min

IC50: 8 µM
SMILES: CC(C)c1ccc(C(=O)CC(Sc2ccc(Cl)cc2)C(=O)O)cc1 (stereo not shown) [Lead1]
